The values that follow are results of earlier work, collected in patent publication US20030083469A1, “Allosteric control of nuclear hormone receptors” (The Salk Institute for Biological Studies, priority 1995, published 2003).

One data set has as its system RXR. To be noted: Allegretto et al., 1993, Allenby et al.; cited from earlier work.
The test system of a further data set is RAR. Conditions: Allegretto et al., 1993, Allenby et al.; cited from earlier work.

Turning to `CC1=C(/C=C/C(C)=C\C=C\C(C)=C\C(=O)O)C(C)(C)CCC1` [9-cis RA, 9-cis retinoic acid], the binding affinity result with RXR and with RAR was “high affinity” each time.
